Assay results reported in ChEMBL document CHEMBL1201862, “PubChem BioAssay data set” (2004).
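Cultured in 96-well plates, cells were exposed to test compound for 48 hours across five concentrations. GI50 marks 50% less growth.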 The source made the active and inactive calls. No stated cut-off is given here; in the data, active = GI50 up to about 1.1 µM and inactive = higher.

Legend:
Assay in all cases: NCI anticancer screen, dose series, 48 h
[1] = test system: SN12C
[2] = test system: LOX IMVI
[3] = test system: SNB-75
[4] = test system: SF-539
[5] = test system: RXF 393
[6] = test system: TK-10
[7] = test system: UACC-62
[8] = test system: COLO 205
[9] = test system: M14
[10] = test system: NCI-H522
[11] = test system: SK-MEL-28
[12] = test system: T47D
[13] = test system: UO-31
[14] = test system: PC-3
[15] = test system: SF-295
[16] = test system: A549
[17] = test system: NCI-H23
[18] = test system: SW-620
[19] = test system: SK-OV-3
[20] = test system: SR
[21] = test system: SNB-19
[22] = test system: HCT-15
[23] = test system: HOP-62
[24] = test system: CAKI-1
[25] = test system: OVCAR-8
[26] = test system: U-251
[27] = test system: Malme-3M
[28] = test system: BT-549
[29] = test system: IGROV-1
[30] = test system: MCF7
[31] = test system: 786-0
[32] = test system: Hs-578T
[33] = test system: OVCAR-5
[34] = test system: CCRF-CEM
[35] = test system: OVCAR-4
[36] = test system: A498
[37] = test system: ACHN
[38] = test system: EKVX
[39] = test system: MDA-MB-231
[40] = test system: NCI-H460
[41] = test system: RPMI-8226
[42] = test system: KM12
[43] = test system: SK-MEL-5
[44] = test system: NCI-H226
[45] = test system: UACC-257
[46] = test system: HT-29
[47] = test system: NCI/ADR-RES
[48] = test system: HCT-116
[49] = test system: DU-145
[50] = test system: SK-MEL-2
[51] = test system: MDA-MB-435
[52] = test system: HL-60
[53] = test system: K562
[54] = test system: OVCAR-3
[55] = test system: HCC 2998
[56] = test system: SF-268
[57] = test system: HOP-92
[58] = test system: MOLT-4

Measured: GI50

COC(=O)C1=C(OC(=O)/C(=C/c2ccccc2)c2ccccc2)C(C(=O)OC)[C@@]2(O)[C@@H](C(=O)OC)[C@H](C)C[C@@H]1[C@@H]2C(=O)OC (some centres undefined)
inactive: [1] > 100 µM | [2] > 100 µM | [3] > 100 µM | [4] > 100 µM | [5] 66.2 µM | [6] > 100 µM | [7] > 100 µM | [8] > 100 µM | [9] > 100 µM | [10] 45.4 µM | [11] > 100 µM | [12] > 100 µM | [13] > 100 µM | [14] > 100 µM | [15] 69.7 µM | [16] > 100 µM | [17] > 100 µM | [18] > 100 µM | [19] > 100 µM | [20] > 100 µM | [21] > 100 µM | [23] > 100 µM | [24] > 100 µM | [25] > 100 µM | [26] > 100 µM | [27] > 100 µM | [28] > 100 µM | [29] > 100 µM | [30] > 100 µM | [31] > 100 µM | [32] > 100 µM | [33] > 100 µM | [34] > 100 µM | [35] > 100 µM | [36] > 100 µM | [37] > 100 µM | [38] > 100 µM | [39] > 100 µM | [40] > 100 µM | [41] 2.67 µM | [42] > 100 µM | [43] > 100 µM | [44] > 100 µM | [45] > 100 µM | [46] > 100 µM | [47] > 100 µM | [48] > 100 µM | [49] > 100 µM | [50] > 100 µM | [51] > 100 µM | [52] > 100 µM | [53] 6.11 µM | [54] > 100 µM | [55] > 100 µM | [56] > 100 µM
> 100 µM: [22]

N#CSC1CCCCNC1=O (centres undefined)
inactive: [1] 14.3 µM | [2] 13.5 µM | [4] 12.7 µM | [5] 13.7 µM | [6] 16.1 µM | [7] 12.3 µM | [8] 15.5 µM | [9] 16.7 µM | [57] 2.78 µM | [10] 8.09 µM | [11] 13.4 µM | [12] 13 µM | [13] 15.1 µM | [14] 13.6 µM | [15] 14.8 µM | [16] 15.1 µM | [17] 7.62 µM | [19] 9.98 µM | [20] 6 µM | [21] 15.2 µM | [23] 20.6 µM | [24] 11.8 µM | [25] 14.7 µM | [26] 11.2 µM | [27] 14.4 µM | [28] 5.93 µM | [30] 4.07 µM | [31] 14.7 µM | [32] 16.1 µM | [33] 2 µM | [34] 5.55 µM | [37] 14.9 µM | [38] 17.9 µM | [39] 14.9 µM | [40] 12.5 µM | [41] 5.96 µM | [42] 14.1 µM | [44] 12 µM | [45] 17.1 µM | [46] 11.5 µM | [47] 12.8 µM | [48] 8.45 µM | [49] 11.1 µM | [50] 11.4 µM | [51] 13.9 µM | [52] 23.9 µM | [53] 18.2 µM | [54] 11.3 µM | [58] 2.48 µM | [55] 16.4 µM | [56] 11.8 µM
11.8 µM: [22]

C[C@@H]1OC(=O)C[C@H]2CC(=O)N(CCC3CN(S(=O)(=O)C(F)(F)F)c4ccc(Cc5ccc6c(c5)C(CCN5C[C@H]7[C@@H](CC(=O)O[C@H]7C)CC5=O)CN6S(=O)(=O)C(F)(F)F)cc43)C[C@@H]21 (some centres undefined)
> 100 µM: [22]
inactive: [2] > 100 µM | [3] > 100 µM | [5] > 100 µM | [6] > 100 µM | [7] > 100 µM | [8] > 100 µM | [9] > 100 µM | [57] > 100 µM | [11] > 100 µM | [12] > 100 µM | [13] > 100 µM | [14] > 100 µM | [15] > 100 µM | [16] > 100 µM | [17] > 100 µM | [18] > 100 µM | [19] > 100 µM | [21] > 100 µM | [23] > 100 µM | [24] > 100 µM | [25] > 100 µM | [26] > 100 µM | [27] > 100 µM | [28] > 100 µM | [30] > 100 µM | [31] > 100 µM | [33] > 100 µM | [34] > 100 µM | [35] > 100 µM | [36] > 100 µM | [37] > 100 µM | [38] > 100 µM | [39] > 100 µM | [40] > 100 µM | [41] > 100 µM | [42] > 100 µM | [43] > 100 µM | [44] > 100 µM | [45] > 100 µM | [47] > 100 µM | [48] > 100 µM | [49] > 100 µM | [50] > 100 µM | [51] > 100 µM | [53] > 100 µM | [54] > 100 µM | [58] > 100 µM | [55] > 100 µM | [56] > 100 µM
active: [4] < 0.01 µM
